Legend:
SK-BR-3 = assay: Inhibition of cells growth by colorimetric assay (SRB), SK-BR-3; type: cell-based; conditions: SRB, 48 hours exposure; for GI50 / CC50: Homo sapiens, SK-BR-3, 48 h; for GI50 / TGI SK-BR3: SK-BR3; for GI50: read-out: GI50 SK-BR3; for CC50: read-out: LC50 SK-BR3, SK-BR3
Summary of the method: (§1)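 Using sulforhodamine B, cell growth and viability are quantified after a 48 h drug exposure of cells maintained in RPMI 1640/10% FBS at 37 °C, 5% CO2. Concentrations span 10 to 10^−8 μg/ml; optical density is read at 490 nm.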

K-562 = assay: Inhibition of cells growth by colorimetric assay (SRB), K-562; type: cell-based; conditions: SRB, 48 hours exposure; for GI50 / LC50 (50% cell killing): Homo sapiens, K562, 48 h; for GI50 / TGI K-562: K-562; for GI50: read-out: GI50 K-562; for LC50 (50% cell killing): read-out: LC50 K-562, K-562
Summary of the method: as §1

LoVo = assay: Inhibition of cells growth by colorimetric assay (SRB), LoVo; type: cell-based; conditions: SRB, 48 hours exposure; for GI50 / LC50 (concentration for 50% cell killing): Homo sapiens, LoVo, 48 h; for GI50 / TGI LOVO: LOVO; for GI50: read-out: GI50 LOVO; for LC50 (concentration for 50% cell killing): read-out: LC50 LOVO, LOVO
Summary of the method: as §1

IGROV-1 = assay: Inhibition of cells growth by colorimetric assay (SRB), IGROV-1; type: cell-based; conditions: SRB, 48 hours exposure; for GI50 / CC50: Homo sapiens, IGROV-1, 48 h; for GI50 / TGI IGROV: IGROV; for GI50: read-out: GI50 IGROV; for CC50: read-out: LC50 IGROV, IGROV
Summary of the method: as §1

LNCaP = assay: Inhibition of cells growth by colorimetric assay (SRB), LNCaP; type: cell-based; conditions: SRB, 48 hours exposure; for CC50 / GI50: Homo sapiens; for CC50: LNCaP, 48 h, read-out: LC50 LNCAP, LNCAP; for GI50 / TGI LNCAP: LNCAP; for GI50: read-out: GI50 LNCAP
Summary of the method: as §1

HMEC1 = assay: Inhibition of cells growth by colorimetric assay (SRB), HMEC1; type: cell-based; conditions: SRB, 48 hours exposure; for GI50 / LC50: Homo sapiens, HMEC-1, 48 h; for TGI HMEC-1 / GI50: HMEC-1; for GI50: read-out: GI50 HMEC-1; for LC50: read-out: LC50 HMEC-1, HMEC-1
Summary of the method: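 5×10^3 cells/well; 18 h attach; compound 10–10^−8 μg/ml in DMSO/EtOH/PBS (0.5:0.5:99), 48 h, 37 °C, 5% CO2; cold 50% TCA fix 60 min 4 °C; 0.4% SRB 10 min RT; Tris solubilization; OD 490 nm; triplicates.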

IGROV-ET = assay: Inhibition of cells growth by colorimetric assay (SRB), IGROV-ET; type: cell-based; conditions: SRB, 48 hours exposure; for GI50 / CC50: Homo sapiens, 48 h; for GI50 / TGI IGROV-ET: IGROV-ET; for GI50: read-out: GI50 IGROV-ET; for CC50: read-out: LC50 IGROV-ET, IGROV-ET
Summary of the method: as §1

LoVo-Dox = assay: Inhibition of cells growth by colorimetric assay (SRB), LoVo-Dox; type: cell-based; conditions: SRB, 48 hours exposure; for GI50 / CC50: Homo sapiens, 48 h; for GI50 / TGI LOVO-DOX: LOVO-DOX; for GI50: read-out: GI50 LOVO-DOX; for CC50: read-out: LC50 LOVO-DOX, LOVO-DOX
Summary of the method: as §1

DU-145 = assay: Inhibition of cells growth by colorimetric assay (SRB), DU-145; type: cell-based; conditions: SRB, 48 hours exposure; for GI50 / CC50: Homo sapiens, DU-145, 48 h; for TGI DU-145 / GI50: DU-145; for GI50: read-out: GI50 DU-145; for CC50: read-out: LC50 DU-145, DU-145
Summary of the method: as §1

SK-MEL-28 = assay: Inhibition of cells growth by colorimetric assay (SRB), SK-MEL-28; type: cell-based; conditions: SRB, 48 hours exposure; for GI50 / CC50: Homo sapiens, SK-MEL-28, 48 h; for GI50 / TGI MEL-28: MEL-28; for GI50: read-out: GI50 MEL-28; for CC50: read-out: LC50 MEL-28, MEL-28
Summary of the method: as §1

A-549 = assay: Inhibition of cells growth by colorimetric assay (SRB), A-549; type: cell-based; conditions: SRB, 48 hours exposure; for GI50 / LC50 (concentration for 50% cell killing): Homo sapiens, A549, 48 h; for TGI A-549 / GI50: A-549; for GI50: read-out: GI50 A-549; for LC50 (concentration for 50% cell killing): read-out: LC50 A-549, A-549
Summary of the method: as §1

PANC-1 = assay: Inhibition of cells growth by colorimetric assay (SRB), PANC-1; type: cell-based; conditions: SRB, 48 hours exposure; for GI50 / LC50 (concentration for 50% net cell kill): Homo sapiens, PANC-1, 48 h; for GI50 / TGI PANC-1: PANC-1; for GI50: read-out: GI50 PANC-1; for LC50 (concentration for 50% net cell kill): read-out: LC50 PANC-1, PANC-1
Summary of the method: as §1

HT-29 = assay: Inhibition of cells growth by colorimetric assay (SRB), HT-29; type: cell-based; conditions: SRB, 48 hours exposure; for GI50 / LC50 (concentration for 50% cell killing): Homo sapiens, HT-29, 48 h; for TGI HT-29 / GI50: HT-29; for GI50: read-out: GI50 HT-29; for LC50 (concentration for 50% cell killing): read-out: LC50 HT-29, HT-29
Summary of the method: as §1

SK-OV-3 = assay: Inhibition of cells growth by colorimetric assay (SRB), SK-OV-3; type: cell-based; conditions: SRB, 48 hours exposure; for GI50 / LC50: Homo sapiens, SK-OV-3, 48 h; for GI50 / TGI SK-OV3: SK-OV3; for GI50: read-out: GI50 SK-OV3; for LC50: read-out: LC50 SK-OV3, SK-OV3
Summary of the method: as §1

Text for Heart: (§2) Toxicity was asssessed by the methods reported in Toxicology in Vitro, 15 (2001) 571-577, J. Luber Narod et al.: “Evaluation of the use of in vitro methodolodies as tools for screening new compounds for potential in vivo toxicity”.
Text for Kidney: as §2
Text for Liver: as §2
Text for Myelo: as §2
Text for Skeletal: as §2

## COc1cc2c(cc1OC(=O)c1cc3ccccc3oc1=O)CCN[C@]21CS[C@@H]2c3c(OC(C)=O)c(C)c4c(c3[C@H](COC1=O)N1C2[C@H]2c3c(cc(C)c(OC)c3O)C[C@@H]([C@@H]1O)N2C)OCO4 (stereo partly shown) [Compound 76]
SK-BR-3
  GI50: 0.337 nM
  CC50: 6.17 nM
  TGI SK-BR3: 1.24E-09
K-562
  GI50: 0.00278 nM
  LC50 (50% cell killing): 0.351 nM
  TGI K-562: 3.78E-11
LoVo
  GI50: 1.03 nM
  LC50 (concentration for 50% cell killing): 10.8 nM
  TGI LOVO: 3.30E-09
IGROV-1
  GI50: 0.192 nM
  CC50: 1.66 nM
  TGI IGROV: 4.56E-10
Heart
  Toxicity Data Heart: 1.62E-08
Myelo
  Toxicity Data Myelo: 8.19E-09
LNCaP
  CC50: 0.891 nM
  GI50: 0.217 nM
  TGI LNCAP: 4.40E-10
HMEC1
  TGI HMEC-1: 6.55E-09
  GI50: 1.83 nM
  LC50: 186 nM
IGROV-ET
  GI50: 1.52 nM
  CC50: 21 nM
  TGI IGROV-ET: 3.92E-09
LoVo-Dox
  GI50: 13.9 nM
  CC50: 107 nM
  TGI LOVO-DOX: 4.70E-08
Liver
  Toxicity Data Liver: 1.35E-08
Skeletal
  Toxicity Data Skeletal: 2.15E-09
DU-145
  TGI DU-145: 6.16E-10
  GI50: 0.249 nM
  CC50: 2140 nM
SK-MEL-28
  GI50: 0.622 nM
  CC50: 8.28 nM
  TGI MEL-28: 2.51E-09
A-549
  TGI A-549: 4.31E-09
  GI50: 2.06 nM
  LC50 (concentration for 50% cell killing): 9.07 nM
PANC-1
  GI50: 1.22 nM
  LC50 (concentration for 50% net cell kill): 44.1 nM
  TGI PANC-1: 4.68E-09
HT-29
  TGI HT-29: 6.18E-09
  GI50: 1.28 nM
  LC50 (concentration for 50% cell killing): 4520 nM
Kidney
  Toxicity Data Kidney: 3.20E-09
SK-OV-3
  GI50: 0.293 nM
  LC50: 4810 nM
  TGI SK-OV3: 8.93E-10

## COc1cc2c(cc1OC)[C@@]1(CS[C@@H]3c4c(OC(C)=O)c(C)c5c(c4[C@H](COC1=O)N1C3[C@H]3c4c(cc(C)c(OC)c4O)C[C@@H]([C@@H]1O)N3C)OCO5)NCC2 (stereo partly shown) [Compound 67]
SK-BR-3
  GI50: 0.394 nM
  CC50: 7.48 nM
  TGI SK-BR3: 1.11E-09
K-562
  GI50: 0.118 nM
  LC50 (50% cell killing): 0.8 nM
  TGI K-562: 2.85E-10
LoVo
  GI50: 0.602 nM
  LC50 (concentration for 50% cell killing): 17.7 nM
  TGI LOVO: 3.34E-09
IGROV-1
  GI50: 0.266 nM
  CC50: 1.21 nM
  TGI IGROV: 5.67E-10
Heart
  Toxicity Data Heart: 4.54E-08
Myelo
  Toxicity Data Myelo: 3.27E-08
LNCaP
  CC50: 0.844 nM
  GI50: 0.307 nM
  TGI LNCAP: 5.09E-10
HMEC1
  TGI HMEC-1: 8.49E-09
  GI50: 1.02 nM
  LC50: 5050 nM
IGROV-ET
  GI50: 1.88 nM
  CC50: 4960 nM
  TGI IGROV-ET: 7.02E-09
LoVo-Dox
  GI50: 4.21 nM
  CC50: 12800 nM
  TGI LOVO-DOX: 3.65E-08
Liver
  Toxicity Data Liver: 3.20E-08
Skeletal
  Toxicity Data Skeletal: 2.37E-08
DU-145
  TGI DU-145: 8.61E-10
  GI50: 0.433 nM
  CC50: 4470 nM
SK-MEL-28
  GI50: 0.411 nM
  CC50: 6.24 nM
  TGI MEL-28: 9.90E-10
A-549
  TGI A-549: 3.63E-09
  GI50: 1.31 nM
  LC50 (concentration for 50% cell killing): 10.1 nM
PANC-1
  GI50: 0.443 nM
  LC50 (concentration for 50% net cell kill): 2670 nM
  TGI PANC-1: 1.09E-09
HT-29
  TGI HT-29: 5.59E-09
  GI50: 0.741 nM
  LC50 (concentration for 50% cell killing): 12900 nM
Kidney
  Toxicity Data Kidney: 5.36E-08
SK-OV-3
  GI50: 0.385 nM
  LC50: 7940 nM
  TGI SK-OV3: 8.52E-10

From US7759345B2, “Antitumoral derivatives of ET-743” (priority 2001, dated 2010)
